This passage reports EC50 and CC50 results from US9518022B2, “Anti-HIV compounds” (priority 2014, dated 2016).

Each structure is given as a SMILES string. Read-outs that look alike come from different tables or passages of the source.

The subject of data set [1] is HIV-1 NL4-3 viral clone engineered to express Renilla luciferase in place of Nef. The data set can be described thus: microbe, parasite or virus in culture. The class given is cell-based. Particulars: Human immunodeficiency virus 1, NL43, MT2, 96 h. As for the experimental part:
The present assay was used to screen candidate antiviral compounds by quantification of virus spread and production over several rounds of infection in vitro. MT-2, a HIV-1 permissive human T-cell line, was seeded in microtiter plates and was simultaneously treated with serially diluted compound and inoculated with a HIV-1 NL4-3 viral clone engineered to express Renilla luciferase in place of Nef. Following treatment, the culture was incubated for 96 hours. After the incubation, media was collected and used to estimate relative infectivity on the indicator cell line, TZM-bl. Additionally, viral spread was quantified by measuring luciferase activity via a commercially available luciferase substrate. In parallel, MT-2 cells were seeded and inoculated with mock virus in the presence of serially diluted compound. Compound toxicity was quantified 96 hours after treatment with AlamarBlue.
MT-2 (NIH Aids reagent program 237) cells were grown and maintained in an incubator at 37° C. with 5% CO2 using a basal medium of RPMI-1640 supplemented with 10% FBS. Cells were seeded in 100 μl at 2×10^4 cells/well in white walled 96-well microtiter plates. Candidate compounds were 3-fold serially diluted in the appropriate solvent. Solvent without compound was used as a no drug reference. Cells were inoculated at a multiplicity of 0.027 with an HIV-1 NL4-3 virus stock engineered to express Renilla luciferase in place of Nef. Diluted virus stock was first added to serially diluted compound. Compound and virus were delivered to cells in an equal volume (100 μl) and treated cultures were returned to the incubator for 96 hours. In parallel, plates for cytotoxicity estimates were prepared in the same way except cells were plated in clear walled 96-well microtiter plates and were mock infected.
At 96 hours post infection, 100 μl virus containing culture supernatant was collected from the treated and infected cultures and serially diluted in DMEM supplemented with 10% FBS, 1% sodium pyruvate, and 20 μg/ml DEAE dextran. One day prior, TZM-bl (ATCC PTA-5659) were cultured in basal medium of DMEM supplemented with 10% FBS and 1% sodium pyruvate and seeded at 7.5×10^3 cells/well in black walled 96-well microtiter plates. Diluted virus containing culture supernatant was transferred to TZM-bl cultures and incubated for 48 hours at 37° C. with 5% CO2. Infected TZM-bl cultures were fixed for 5 minutes with a 1% formaldehyde/0.2% gluteraldehyde/PBS solution then washed three times with PBS. Fixed cultures were incubated at 37° C. for 25 minutes with a 200 μg/ml MUG (4-Methylumbelliferyl β-D-[…])/DMEM solution. The reaction was stopped with an equal volume of 1M sodium carbonate and read at 360, 449 nm on fluorescence plate reader (Biotek).
At 96 hours post infection, 100 μl of culture supernatant was removed from the treated and infected cultures and EnduRen live cell substrate (Promega) was added at a final concentration 1.3 μg/ml. Cells were incubated for 1.5 hours at 37° C. with 5% CO2 then read on a luminescence plate reader (Biotek).
For all assays, data was imported into Accelrys Assay Explorer 3.3. In Assay Explorer, % inhibition (antiviral or cytotoxicity) was calculated using the solvent control as a reference by the following equation: 1−(SignalCompound/SignalReference). The % Inhibition and compound concentration data was fitted using the following 4-parameter logistic model (Assay Explorer model 42):
[formula] where X is compound concentration, Y is % inhibition, D is the maximum % Inhibition (constrained to 100%), C is IC50 value or inflection point, B is the hill slope, and A is the minimum % inhibition (constrained to 0%). The IC50 value is reported as the EC50 or CC50 depending on the assay endpoint. EC50 represents the effective concentration at which virus replication is inhibited by 50 percent. CC50 represents the concentration that results in the death of 50 percent of the host cells. […]

The nature of data set [2]: Cytotoxicity assay (AlamarBlue) in mock infected MT-2 cells. The class given is cell-based. Particulars: human. The method in brief: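 MT-2 cells at 2×10^4 cells/well, mock-infected, treated with 3-fold serial compound dilutions for 96 h at 37 °C. AlamarBlue added for 3 h, fluorescence read at 545/590 nm; % inhibition versus solvent control fitted to a 4-parameter logistic to give CC50.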

Where [3] appears, read: mock infected MT-2 cells, 96 hours, AlamarBlue, read-out: CC50.

`COc1cc2c(cc1OCc1ccccc1)CCNC2/C=C/c1ccc2cn[nH]c2c1` (stereo not shown) [BT, 6-(benzyloxy)-1-[(E)-2-(1H-indazol-6-yl)ethenyl]-7-methoxy-1,2,3,4-tetrahydroisoquinoline]: the half-maximal effective concentration (EC50) in data set [1] stood at 0.613 µM. For the same molecule, in data set [2], the CC50 at 96 h was 7.98 µM.

In the case of `COc1cc2c(cc1OCc1ccccc1)CCNC2/C=C/c1cccc2c1ccn2C(=O)OC(C)(C)C` (stereo not shown) [CK, tert-butyl 4-[(E)-2-[6-(benzyloxy)-7-methoxy-1,2,3,4-tetrahydroisoquinolin-1-yl]ethenyl]-1H-indole-1-carboxylate], the midpoint of the response in data set [1], the EC50, lay at 0.805 µM. The same molecule registered a CC50 at 96 h in data set [2] of 5.99 µM.

Take `COc1cc2c(cc1OCc1ccccc1)CCNC2/C=C/c1cccc2[nH]ccc12` (stereo not shown) [CL, 6-(benzyloxy)-1-[(E)-2-(1H-indol-4-yl)ethenyl]-7-methoxy-1,2,3,4-tetrahydroisoquinoline]: in data set [1], the EC50 was determined as 1.5 µM. For the same molecule, in data set [2], the 50% cytotoxic concentration (CC50) at 96 h turned out to be 7.2 µM. For `COc1cc2c(cc1OCc1ccccc1)CCNC2/C=C/c1ccc2c(ccn2C(=O)OC(C)(C)C)c1` (stereo not shown) [CM, tert-butyl 5-[(E)-2-[6-(benzyloxy)-7-methoxy-1,2,3,4-tetrahydroisoquinolin-1-yl]ethenyl]-1H-indole-1-carboxylate], in that order: 1.3 µM and 10 µM. For `COc1cc2c(cc1OCc1ccccc1)CCNC2/C=C/c1cccc2ccn(C(=O)OC(C)(C)C)c12` (stereo not shown) [CN, tert-butyl 7-[(E)-2-[6-(benzyloxy)-7-methoxy-1,2,3,4-tetrahydroisoquinolin-1-yl]ethenyl]-1H-indole-1-carboxylate], the concentration for a half-maximal effect (EC50) in data set [1] was 1.83 µM. The molecule further yielded a cytotoxic concentration (CC50) at 96 h in data set [2] of 19.6 µM.

`COc1cc2c(cc1OCc1ccccc1)CCNC2/C=C/c1ccc(F)c(O)c1F` (stereo not shown) [CO, 3-[(E)-2-[6-(benzyloxy)-7-methoxy-1,2,3,4-tetrahydroisoquinolin-1-yl]ethenyl]-2,6-difluorophenol]: the EC50 in data set [1] was 6 µM. The midpoint of cytotoxicity in data set [2], the CC50 at 96 h, lay at 10 µM. With `COc1cc2c(cc1OCc1ccccc1)CCNC2/C=C/c1cccc(S(C)(=O)=O)c1` (stereo not shown) [CP, 6-(benzyloxy)-1-[(E)-2-(3-methanesulfonylphenyl)ethenyl]-7-methoxy-1,2,3,4-tetrahydroisoquinoline], the EC50 in data set [1] was 3.07 µM. This molecule also came in with a CC50 at 96 h in data set [2] of 20.6 µM. For `COc1cc2c(cc1/C=C/C1NCCc3cc(OCc4ccccc4)c(OC)cc31)OCCO2` (stereo not shown) [CQ, 6-(benzyloxy)-7-methoxy-1-[(E)-2-(7-methoxy-2,3-dihydro-1,4-benzodioxin-6-yl)ethenyl]-1,2,3,4-tetrahydroisoquinoline], in that order: 0.06 µM and 1.4 µM. For `COc1cc2c(cc1/C=C/C1NCCc3cc(OCc4ccccc4)c(OC)cc31)OCO2` (stereo not shown) [CR, 6-(benzyloxy)-7-methoxy-1-[(E)-2-(6-methoxy-2H-1,3-benzodioxol-5-yl)ethenyl]-1,2,3,4-tetrahydroisoquinoline], in that order: 0.12 µM and 3.3 µM. In the case of `COc1cc2c(cc1OCc1ccccc1)CCNC2/C=C/c1ccc2ccn(C(=O)OC(C)(C)C)c2c1` (stereo not shown) [CS, tert-butyl 6-[(E)-2-[6-(benzyloxy)-7-methoxy-1,2,3,4-tetrahydroisoquinolin-1-yl]ethenyl]-1H-indole-1-carboxylate], in data set [1], the concentration giving a half-maximal response (EC50) amounted to 0.912 µM. The cytotoxic concentration (CC50) at 96 h in data set [2] was determined as 6.15 µM. Regarding `COc1cc(/C=C/C2NCCc3cc(OCc4ccccc4)c(OC)cc32)c(N(C)C)cc1OC` (stereo not shown) [CT, 2-[(E)-2-[6-(benzyloxy)-7-methoxy-1,2,3,4-tetrahydroisoquinolin-1-yl]ethenyl]-4,5-dimethoxy-N,N-dimethylaniline], a half-maximal response in data set [1] (EC50) required 0.2 µM. The same molecule displayed a 50% cytotoxic concentration (CC50) at 96 h in data set [2] of 8.9 µM. Consider `COc1cc2c(cc1OCc1ccccc1)CCNC2/C=C/c1cccnc1N(C)C` (stereo not shown) [CU, 3-[(E)-2-[6-(benzyloxy)-7-methoxy-1,2,3,4-tetrahydroisoquinolin-1-yl]ethenyl]-N,N-dimethylpyridin-2-amine], for which, in data set [1], the concentration giving a half-maximal response (EC50) was found to be 1.4 µM. Also, in data set [2], the midpoint of cytotoxicity, the CC50 at 96 h, lay at 19.9 µM. In turn, `COc1ccc(/C=C/C2c3cc(OC)c(OCc4ccccc4)cc3CCN2C)cc1OCc1ccccc1` (stereo not shown) [Example V, 6-benzyloxy-1-[(E)-2-(3-benzyloxy-4-methoxy-phenyl)vinyl]-7-methoxy-2-methyl-3,4-dihydro-1H-isoquinoline] came in with a cytotoxic concentration (CC50) at 96 h in data set [2] of 6.68 µM. Consider `COc1cc2c(cc1OCc1ccccc1)CCNC2/C=C/c1ccccc1C` (stereo not shown) [Example W, 6-benzyloxy-7-methoxy-1-[(E)-2-(o-tolyl)vinyl]-1,2,3,4-tetrahydroisoquinoline], for which, in data set [2] (setting [3]), the CC50 at 96 h came out at 4 µM.

As to `COc1cc2c(cc1OCc1ccccc1)CCNC2/C=C/c1ccc(F)cc1C` (stereo not shown) [Example X, 6-benzyloxy-1-[(E)-2-(4-fluoro-2-methyl-phenyl)vinyl]-7-methoxy-1,2,3,4-tetrahydroisoquinoline], the CC50 at 96 h in data set [2] (setting [3]) was found to be 5.3 µM. Consider `COc1cc(C)c(/C=C/C2c3cc(OC)c(OCc4ccccc4)cc3CCN2C(=O)OC(C)(C)C)cc1OCc1ccccc1` (stereo not shown) [Example Y, tert-butyl 6-benzyloxy-1-[(E)-2-(5-benzyloxy-4-methoxy-2-methyl-phenyl)vinyl]-7-methoxy-3,4-dihydro-1H-isoquinoline-2-carboxylate], for which, in data set [2], half-maximal cytotoxicity (CC50 at 96 h) was put at 28.1 µM.
